In patent publication US20260274837A1, “PESTICIDALLY ACTIVE HETEROCYCLIC DERIVATIVES WITH SULFUR CONTAINING SUBSTITUENTS” (SYNGENTA CROP PROTECTION AG, priority 2023, published 2026):

What was measured:
Type in all cases: in vivo
Plutella xylostella = experiment: Activity against Plutella xylostella (diamond back moth), artificial diet in 24-well plates; conditions: 192 h, application rate 200 ppm, eggs, assessed 8 days after infestation vs untreated, read-out: effect in at least one of the two categories (mortality or growth inhibition)
Experimental: Example B3: Activity Against Plutella xylostella (Diamond Back Moth)
24-well microtiter plates with artificial diet were treated with aqueous test solutions prepared from 10′000 ppm DMSO stock solutions by pipetting. After drying, Plutella eggs were pipetted through a plastic stencil onto a gel blotting paper and the plate was closed with it. The samples were assessed for mortality and growth inhibition in comparison to untreated samples 8 days after infestation.

Chilo suppressalis = experiment: Activity against Chilo suppressalis (striped rice stemborer), artificial diet in 24-well plates; conditions: 144 h, application rate 200 ppm, L2 larvae, assessed 6 days after infestation vs untreated, read-out: control (at least one of mortality, anti-feedant effect, growth inhibition)
Experimental: Example B1: Activity Against Chilo suppressalis (Striped Rice Stemborer)
24-well microtiter plates with artificial diet were treated with aqueous test solutions prepared from 10′000 ppm DMSO stock solutions by pipetting. After drying, the plates were infested with L2 larvae (6-8 per well). The samples were assessed for mortality, anti-feeding effect, and growth inhibition in comparison to untreated samples 6 days after infestation. Control of Chilo suppressalis by a test sample is given when at least one of the categories mortality, anti-feedant effect, and growth inhibition is higher than the untreated sample.

Diabrotica balteata = experiment: Activity against Diabrotica balteata (corn root worm), sprayed maize sprouts on agar; conditions: 96 h, application rate 200 ppm, L2 larvae, assessed 4 days after infestation vs untreated, read-out: effect in at least one of the two categories (mortality or growth inhibition)
Experimental: Example B2: Activity Against Diabrotica Balteata (Corn Root Worm)
Maize sprouts placed onto an agar layer in 24-well microtiter plates were treated with aqueous test solutions prepared from 10′000 ppm DMSO stock solutions by spraying. After drying, the plates were infested with L2 larvae (6 to 10 per well). The samples were assessed for mortality and growth inhibition in comparison to untreated samples 4 days after infestation.

Spodoptera littoralis = experiment: Activity against Spodoptera littoralis (Egyptian cotton leaf worm), sprayed cotton leaf discs; conditions: foliar, 72 h, application rate 200 ppm, L1 larvae, assessed 3 days after infestation vs untreated, read-out: control (at least one of mortality, anti-feedant effect, growth inhibition)
Experimental: Example B4: Activity Against Spodoptera littoralis (Egyptian Cotton Leaf Worm)
Cotton leaf discs were placed onto agar in 24-well microtiter plates and sprayed with aqueous test solutions prepared from 10′000 ppm DMSO stock solutions. After drying the leaf discs were infested with five L1 larvae. The samples were assessed for mortality, anti-feeding effect, and growth inhibition in comparison to untreated samples 3 days after infestation. Control of Spodoptera littoralis by a test sample is given when at least one of the categories mortality, anti-feedant effect, and growth inhibition is higher than the untreated sample.

CCS(=O)(=O)c1c(-c2coc3cc(C(F)(F)F)ccc3c2=O)nc2cc(C(F)(F)F)ccn12 [P.1, 3-[3-ethylsulfonyl-7-(trifluoromethyl)imidazo[1,2-a]pyridin-2-yl]-7-(trifluoromethyl)chromen-4-one]
≥ 80%: percent effect (mortality or growth inhibition) at 200 ppm (Plutella xylostella) | percent control (mortality, anti-feedant effect or growth inhibition) at 200 ppm (Chilo suppressalis) | percent effect (mortality or growth inhibition) at 200 ppm (Diabrotica balteata) | percent control (mortality, anti-feedant effect or growth inhibition) at 200 ppm (Spodoptera littoralis)
